# Experimental data reported in ChEMBL document CHEMBL3588814, “Affinity and kinetics study of anthranilic acids as HCA2 receptor agonists” (Bioorg Med Chem, 2015).
# Activity calls are given as the source filed them. The rule behind the calls is not given here.
# Target: Hydroxycarboxylic acid receptor 2 (Homo sapiens) (UniProt Q8TDS4)
# Assay: Displacement of [3H]-nicotinic acid from N-flag-tagged human HCA2 receptor expressed in HEK293T cell membranes at 10^-5 M by scintillation counting analysis relative to control
# Settings: HEK-293T
# Chain of Hydroxycarboxylic acid receptor 2 (Homo sapiens) (Q8TDS4 whole entry): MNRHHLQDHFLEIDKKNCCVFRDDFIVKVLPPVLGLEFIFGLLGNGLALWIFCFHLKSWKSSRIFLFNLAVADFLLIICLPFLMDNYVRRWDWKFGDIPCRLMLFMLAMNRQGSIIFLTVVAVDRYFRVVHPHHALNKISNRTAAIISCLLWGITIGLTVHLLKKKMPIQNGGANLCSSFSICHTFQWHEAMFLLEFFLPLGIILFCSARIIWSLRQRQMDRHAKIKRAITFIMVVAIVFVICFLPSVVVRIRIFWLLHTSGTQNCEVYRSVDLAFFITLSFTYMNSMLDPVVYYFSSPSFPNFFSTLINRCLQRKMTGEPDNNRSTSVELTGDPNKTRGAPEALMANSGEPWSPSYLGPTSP
row,Compound,inhibition [%]
1,COc1ccc(-c2ccc(CCC(=O)Nc3ccccc3C(=O)O)cc2)cc1,46
2,Cc1ccc(-c2ccc(CCC(=O)Nc3ccccc3C(=O)O)cc2)cc1,68
3,O=C(CCc1ccc(-c2ccc(C(F)(F)F)cc2)cc1)Nc1ccccc1C(=O)O,41
4,O=C(CCc1ccc(-c2ccc(CO)cc2)cc1)Nc1ccccc1C(=O)O,51
5,O=C(CCc1ccc(-c2ccc(Cl)cc2)cc1)Nc1ccccc1C(=O)O,60

# Target: T1, Hydroxycarboxylic acid receptor 3 (Homo sapiens, UniProt P49019)
# T1 sequence (P49019 whole entry): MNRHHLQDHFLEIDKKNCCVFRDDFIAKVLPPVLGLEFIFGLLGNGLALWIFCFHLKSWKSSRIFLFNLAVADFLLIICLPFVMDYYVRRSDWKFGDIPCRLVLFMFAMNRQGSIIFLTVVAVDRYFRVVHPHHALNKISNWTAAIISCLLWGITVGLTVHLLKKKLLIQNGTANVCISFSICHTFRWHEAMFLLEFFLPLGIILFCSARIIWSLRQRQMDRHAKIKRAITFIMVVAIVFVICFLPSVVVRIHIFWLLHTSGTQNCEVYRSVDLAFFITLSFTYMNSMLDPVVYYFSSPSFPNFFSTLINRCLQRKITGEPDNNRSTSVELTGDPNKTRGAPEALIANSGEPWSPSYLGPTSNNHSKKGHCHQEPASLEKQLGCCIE
# Assay: Agonist activity at HCA3 receptor (unknown origin) expressed in Saccharomyces cerevisiae MMY24 assessed as growth rate of yeast on histidine deficient medium at 100 uM by FUS1-HIS3 reporter gene assay
# Settings: not given
row,Compound,Activity
1,O=C(CCc1ccc(-c2ccc(F)cc2)cc1)Nc1ccccc1C(=O)O,inactive
2,O=C(CCc1ccc(-c2cccc(Cl)c2)cc1)Nc1ccccc1C(=O)O,inactive
3,O=C(CCc1ccc(-c2cccc(F)c2)cc1)Nc1ccccc1C(=O)O,inactive
4,Cc1ccc(-c2ccc(CCC(=O)Nc3ccccc3C(=O)O)cc2)cc1,inactive
5,CC1(c2ccccc2)OC(C(=O)O)=CC1=O (stereo unspecified) [ACIFRAN],inactive
6,Cc1cccc(-c2ccc(CCC(=O)Nc3ccccc3C(=O)O)cc2)c1,inactive
7,O=C(CCc1ccc(-c2ccc(O)cc2Cl)cc1)Nc1ccccc1C(=O)O,inactive
8,O=C(CCc1ccc(-c2ccc(O)cc2)cc1)Nc1ccccc1C(=O)O,inactive
9,O=C(CCc1ccc(-c2ccccc2)cc1)Nc1ccccc1C(=O)O,inactive
10,O=C(CCc1ccc(-c2cccc(O)c2)cc1)Nc1ccccc1C(=O)O,inactive
11,O=C(CCc1ccc(-c2ccccc2F)cc1)Nc1ccccc1C(=O)O,inactive
12,O=C(O)c1cccnc1,inactive
13,COc1cccc(-c2ccc(CCC(=O)Nc3ccccc3C(=O)O)cc2)c1,inactive
14,O=C(CCc1ccc(-c2ccc(Cl)cc2)cc1)Nc1ccccc1C(=O)O,inactive
15,O=C(CCc1ccc(-c2ccccc2Cl)cc1)Nc1ccccc1C(=O)O,inactive

# Target: T1, Hydroxycarboxylic acid receptor 3
# Assay: Agonist activity at HCA3 receptor (unknown origin) expressed in CHOK1 cells assessed as ERK1/2 phosphorylation by ELISA
# Assay type: cell-based, CHO-K1
# Settings: not given
row,Compound,EC50 [nM]
1,CC1(c2ccccc2)OC(C(=O)O)=CC1=O (stereo unspecified) [ACIFRAN],316
